Earlier results, collected in patent US4554271A, “Use of high doses of derivatives of 6α-methylprednisolone for the acute treatment of stroke syndrome” (The Upjohn Company, priority 1984, dated 1985).
Where a name gives a salt, the structure may show the parent alone. Read-outs that look alike come from different tables or passages of the source.

Experiments:
[1] = tested on: canine middle cerebral artery (MCA); details: canine MCA embolization, embolectomy at 6 hours; DMSO 2 gm/kg
[2] = tested on: motor neuron; details: cat; large intravenous doses
[3] = tested on: (Na^+ +K^+)-ATPase; details: cat spinal cord; large intravenous doses
[4] = tested on: lipid peroxide formation; details: cat spinal cord; large intravenous doses
[5] = tested on: cyclic guanosine 3',5'-monophosphate (cyclic GMP); details: cat
[6] = tested on: adenylate cyclase systems
[7] = tested on: cardiac, renal, and hepatic ischemia; details: in vivo
[8] = tested on: lipid peroxidation
[9] = tested on: spinal cord-injured animals; details: comparable doses (15 to 30 mg/kg) soon after injury; other studies
[10] = single 30-mg/kg dose
[11] = tested on: (Na^+ +K^+)-ATPase; details: for (Na^+ +K^+)-ATPase activity in the injured cord: cat
[12] = tested on: cerebral ischemia; details: anesthetized gerbil; 35 mg/kg; bilateral occlusion of the carotid arteries
[13] = tested on: ischemia-induced neurological deficits; details: gerbils; title of cited paper
[14] = 15- or 30-mg/kg intravenous dose given 30 minutes after trauma, earlier studies

C[S+](C)[O-] [DMSO, dimethyl sulfoxide]
infarction of the brain [1]: no infarction

C[C@H]1C[C@@H]2[C@H]([C@@H](O)C[C@@]3(C)[C@H]2CC[C@]3(O)C(=O)COC(=O)CCC(=O)O)[C@@]2(C)C=CC(=O)C=C12 [methylprednisolone sodium succinate, 1-dehydro-6α-methylhydrocortisone 21-hemisuccinate sodium salt]
impulse conduction along the myelinated portion of the motor axon [2]: accelerated | motor neuron resting membrane potentials [2]: hyperpolarization | spinal cord (Na^+ +K^+)-ATPase activity [3]: enhancement | lipid peroxide formation [4]: attenuation

C[C@H]1C[C@@H]2[C@H]([C@@H](O)C[C@@]3(C)[C@H]2CC[C@]3(O)C(=O)CO)[C@@]2(C)C=CC(=O)C=C12 [methylprednisolone, 1-Dehydro-6α-methylhydrocortisone]
duration of its pharmacological actions (cat, single intravenous administration): roughly 3 hours | spinal cord tissue levels of methylprednisolone at which each of the effects is apparent (cat, single intravenous dose of 30 mg/kg): around 1.3 μg/gm wet weights | half-life in cat spinal cord (single intravenous administration, 30 mg/kg): roughly 3 hours | injury-induced increase in cyclic GMP content in spinal segment ([5]; 15 or 30 mg/kg i.v. at 30 minutes after injury, read at 1 hour): completely prevented | elevation in cyclic GMP ([5]; 60-mg/kg dose): did not prevent | damaging effect (adenylate cyclase systems) of 60 minutes occlusion plus 15 minutes recirculation ([6]; barbiturate-anesthetized gerbils, pretreatment 30 mg/kg, 30 min. prior to carotid ligation): prevented | chronic (7 days) enzyme damage elicited by 15 minutes of bilateral stroke ([6]; gerbils, preliminary work): prevented | relieving cardiac, renal, and hepatic ischemia [7]: effective | lipid peroxidation at 1 hour after injury [8, 14]: significantly reduce | injury-induced increase in fluorescence (lipid peroxy products) in spinal segment ([8]; cat, 15 or 30 mg/kg i.v. at 30 minutes after injury, read at 1 hour): completely prevented | recovery and tissue preservation in spinal cord-injured animals [9]: significantly greater | harmful effects [10]: virtually without harmful effects | (Na^+ +K^+)-ATPase activity at 1 hour after injury [11, 14]: enhance | (Na^+ +K^+)-ATPase activity in the injured cord ([11]; 30-mg/kg dose): striking increase | (Na^+ +K^+)-ATPase activity in the injured cord ([11]; 60-mg/kg dose): depression in activity | survival after cerebral ischemia [12]: improved survival

C=CCN1CC[C@]23c4c5ccc(O)c4O[C@H]2C(=O)CC[C@@]3(O)[C@H]1C5 [naloxone]
reversal of ischemia-induced neurological deficits [13]: Failure
